In paper PMC7375007 (Journal of clinical pharmacology, 2019):
Read-outs that look alike come from different tables or passages of the source.

Assays:
[1] = for Patients within or below the mycophenolic acid AUC0–12h target range: patients with mild gastrointestinal adverse effects (score 1–2); for Cmax / Tmax / AUC(0-t) / AUC / concentration at 12 h / clearance: human, plasma, oral; for AUC: Mycophenolic acid AUC6–12h, estimate of enterohepatic recirculation; for concentration at 12 h: Mycophenolic acid CP(12h); for clearance: Mycophenolic acid clearance; for Mycophenolic acid dose-normalized AUC0–12h: normalized to 1-mg mycophenolic acid dose equivalent
[2] = Enterohepatic circulation of mycophenolic acid; assay type: in vivo, human (stable renal transplant recipients); settings: all patients
[3] = Gastrointestinal adverse effect evaluation; assay type: in vivo, human (stable renal transplant recipients); settings: patients with score > 0
[4] = Tacrolimus whole-blood trough concentration; assay type: in vivo, human (stable renal transplant recipients); settings: human, oral
[5] = tacrolimus- and mycophenolic acid-treated patients; ELITE-SYMPHONY study; cited from earlier work
[6] = with tacrolimus and enteric-coated mycophenolate sodium, female (n = 29), steady state
[7] = with tacrolimus and enteric-coated mycophenolate sodium, male (n = 38), steady state
[8] = on tacrolimus and enteric-coated mycophenolate sodium

Which “Mycophenolic acid glucuronide AUC0–12h, fold higher in women than men” value ([1]; tacrolimus group) does the source give for `COc1c(C)c2c(c(O[C@@H]3O[C@H](C(=O)O)[C@@H](O)[C@H](O)[C@H]3O)c1C/C=C(\C)CCC(=O)O)C(=O)OC2` [Mycophenolic acid glucuronide] here?
The value was 1.37 fold.

And the “Mycophenolic acid glucuronide AUC0–12h” value [1, 6]?
The value was 1068 ± 557 mg·h/L.

And the “Mycophenolic acid glucuronide CP(12h)” value [1, 6]?
The value was 75.1 ± 45.2 mg/L.

And the “Mycophenolic acid glucuronide Cmax” value [1, 6]?
The value was 126000 ± 60000 ng/mL.

What about the “Mycophenolic acid glucuronide tmax” value [1, 6] of the same compound?
The value was 3.68 ± 2.45 h.

And the “Mycophenolic acid glucuronide AUC0–12h” value [1, 7]?
Its value is 780 ± 336 mg·h/L.

And the “Mycophenolic acid glucuronide CP(12h)” value [1, 7]?
Its value is 54.5 ± 28.0 mg/L.

What about the “Mycophenolic acid glucuronide Cmax” value [1, 7] of the same compound?
Its value is 96700 ± 47700 ng/mL.

What about the “Mycophenolic acid glucuronide tmax” value [1, 7] of the same compound?
The value was 3.89 ± 1.76 h.

What does the source list for `COc1c(C)c2c(c(O)c1C/C=C(\C)CCC(=O)O)C(=O)OC2` [Mycophenolic acid]?
Enterohepatic circulation, frequency ([2]; with cyclosporine): 45%; Enterohepatic circulation, frequency ([2]; with tacrolimus): 78%; Enterohepatic circulation, frequency ([2]; with tacrolimus, listed as mycophenolic acid): More than 75%; Gastrointestinal adverse effect score ([3]; mycophenolic acid AUC0–12h < 30 mg·h/L (n = 22)): 1.7 ± 0.8; Gastrointestinal adverse effect score ([3]; mycophenolic acid AUC0–12h > 60 mg h/L (n = 34)): 3.0 ± 1.7; Gastrointestinal adverse effect score ([3]; mycophenolic acid AUC0–12h within 30–60 mg·h/L (n = 54)): 2.2 ± 1.1; Patients within or below the mycophenolic acid AUC0–12h target range of 30–60 mg·h/L ([1]; cyclosporine and mycophenolate mofetil, patients with no gastrointestinal adverse effects): 87%; Patients within or below the mycophenolic acid AUC0–12h target range ([1]; cyclosporine): 88.5%; Cmax ([1]; female, 546 mg): 21700 ± 10600 ng/mL; Tmax ([1]; female, 546 mg): 3.16 ± 2.57 h; Cmax ([1]; female, 591 mg): 6490 ± 2300 ng/mL; Tmax ([1]; female, 591 mg): 2.07 ± 0.11 h; AUC(0-t) ([1]; female, Mycophenolic acid AUC0–12h, with cyclosporine and mycophenolate mofetil, female (n = 14), steady state): 40100 ± 13800 ng·h/mL; AUC(0-t) ([1]; female, Mycophenolic acid AUC0–12h, with tacrolimus and enteric-coated mycophenolate sodium, female (n = 29), steady state): 73400 ± 31200 ng·h/mL; AUC ([1]; female, with cyclosporine and mycophenolate mofetil, female (n = 14)): 15400 ± 5510 ng·h/mL; AUC ([1]; female, with tacrolimus and enteric-coated mycophenolate sodium, female (n = 29)): 29300 ± 24000 ng·h/mL; concentration at 12 h ([1]; female, with cyclosporine and mycophenolate mofetil, female (n = 14), steady state): 2200 ± 1000 ng/mL; concentration at 12 h ([1]; female, with tacrolimus and enteric-coated mycophenolate sodium, female (n = 29), steady state): 4300 ± 2300 ng/mL; clearance ([1]; female, African American women receiving tacrolimus): 162 mL/min; clearance ([1]; with cyclosporine, all patients): 342 mL/min; clearance ([1]; with tacrolimus, all patients): 177 mL/min; AUC(0-t) ([1]; male): 65500 ± 30600 ng·h/mL; Cmax ([1]; male, 587 mg): 19600 ± 11200 ng/mL; Tmax ([1]; male, 587 mg): 2.88 ± 2.06 h; Cmax ([1]; male, 715 mg): 10300 ± 6500 ng/mL; Tmax ([1]; male, 715 mg): 1.92 ± 1.2 h; AUC(0-t) ([1]; male, Mycophenolic acid AUC0–12h, with cyclosporine and mycophenolate mofetil, male (n = 66), steady state): 41000 ± 18400 ng·h/mL; AUC ([1]; male, with cyclosporine and mycophenolate mofetil, male (n = 66)): 12600 ± 7400 ng·h/mL; AUC ([1]; male, with tacrolimus and enteric-coated mycophenolate sodium, male (n = 38)): 23800 ± 13400 ng·h/mL; concentration at 12 h ([1]; male, with cyclosporine and mycophenolate mofetil, male (n = 66), steady state): 2100 ± 1500 ng/mL; concentration at 12 h ([1]; male, with tacrolimus and enteric-coated mycophenolate sodium, male (n = 38), steady state): 3900 ± 2200 ng/mL; Patients within the target mycophenolic acid AUC0–12h range of 30–60 mg h/L ([1]; men receiving cyclosporine and mycophenolate mofetil): 54.5%; Patients exceeding the target mycophenolic acid AUC0–12h range of 30–60 mg h/L ([1]; men receiving tacrolimus and enteric-coated mycophenolate sodium): 50%; Patients achieving target mycophenolic acid AUC0–12h of 30–60 mg·h/L ([1]; on cyclosporine and mycophenolate mofetil): 56.3%; Patients above the mycophenolic acid AUC0–12h target of 60 mg·h/L [1, 8]: 56.7%; Patients achieving target mycophenolic acid AUC0–12h of 30–60 mg·h/L [1, 8]: 34.3%; Patients exceeding the mycophenolic acid AUC0–12h target range ([1]; tacrolimus and enteric-coated mycophenolate sodium, moderate to severe gastrointestinal adverse effects (score ≥ 3)): 50%; Patients above the mycophenolic acid AUC0–12h target range ([1]; tacrolimus and enteric-coated mycophenolate sodium, patients with no gastrointestinal adverse effects): 78.6%; Lymphopenic patients with mycophenolic acid AUC0–12h > 60 mg·h/L ([1]; tacrolimus-based regimen (22 of 35)): 62.9%; Patients within or below the mycophenolic acid AUC0–12h target range ([1]; tacrolimus): 53.8%; Mycophenolic acid dose-normalized AUC0–12h ([1]; with cyclosporine and mycophenolate mofetil, female (n = 14)): 0.066 ± 0.015 mg·h/L/mg; Mycophenolic acid dose-normalized AUC0–12h ([1]; with cyclosporine and mycophenolate mofetil, male (n = 66)): 0.058 ± 0.032 mg·h/L/mg; Mycophenolic acid dose-normalized AUC0–12h ([1]; with tacrolimus and enteric-coated mycophenolate sodium, female (n = 29)): 0.127 ± 0.053 mg·h/L/mg; Mycophenolic acid dose-normalized AUC0–12h ([1]; with tacrolimus and enteric-coated mycophenolate sodium, male (n = 38)): 0.103 ± 0.045 mg·h/L/mg; Patients within the target mycophenolic acid AUC0–12h range of 30–60 mg h/L ([1]; women receiving cyclosporine and mycophenolate mofetil): 64.3%; Patients exceeding the target mycophenolic acid AUC0–12h range of 30–60 mg h/L ([1]; women receiving tacrolimus and enteric-coated mycophenolate sodium): 65.5%

With `C=CC[C@@H]1/C=C(\C)C[C@H](C)C[C@H](OC)[C@H]2O[C@@](O)(C(=O)C(=O)N3CCCC[C@H]3C(=O)O[C@H](/C(C)=C/[C@@H]3CC[C@@H](O)[C@H](OC)C3)[C@H](C)[C@@H](O)CC1=O)[C@H](C)C[C@@H]2OC` [Tacrolimus] as the compound, how does the concentration at 0 h ([4]; female) read?
The concentration at 0 h was 7.1 ± 1.9 ng/mL.

And the concentration at 0 h ([4]; male)?
The concentration at 0 h was 7.3 ± 2 ng/mL.

What about the Diarrhea [5] of the same compound?
The Diarrhea was 25.3%.
